The source made the active and inactive calls.
Key:
HEK293 = assay: viability loss in HEK293T cells – cell-based, ATP luminescence, cherry-pick samples, cytotoxicity control, dose response (AID 687005); assay type: functional; settings: Homo sapiens;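 also: cells exposed to compound for 48 hours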
[1] = HEK293 Cytotoxicity Assay Measured in Cell-Based System Using Plate Reader - 7071-01_Inhibitor_Dose_CherryPick_Activity_Set2.; assay type: functional
[2] = Late-stage results from the probe development effort to identify antagonists of arginine vasopressin receptor 1a (AVPR1a): fluorescence-based cell-based dose response AVPR1a inhibition assay.; assay type: functional
Vasopressin V1b receptor = Vasopressin V1b receptor (Homo sapiens, UniProt P47901); assay: Late-stage results from the probe development effort to identify antagonists of arginine vasopressin receptor 1a (AVPR1a): fluorescence-based cell-based dose response AVPR1b inhibition counterscreen assay.; assay type: functional
Sequence of Vasopressin V1b receptor (P47901 whole entry): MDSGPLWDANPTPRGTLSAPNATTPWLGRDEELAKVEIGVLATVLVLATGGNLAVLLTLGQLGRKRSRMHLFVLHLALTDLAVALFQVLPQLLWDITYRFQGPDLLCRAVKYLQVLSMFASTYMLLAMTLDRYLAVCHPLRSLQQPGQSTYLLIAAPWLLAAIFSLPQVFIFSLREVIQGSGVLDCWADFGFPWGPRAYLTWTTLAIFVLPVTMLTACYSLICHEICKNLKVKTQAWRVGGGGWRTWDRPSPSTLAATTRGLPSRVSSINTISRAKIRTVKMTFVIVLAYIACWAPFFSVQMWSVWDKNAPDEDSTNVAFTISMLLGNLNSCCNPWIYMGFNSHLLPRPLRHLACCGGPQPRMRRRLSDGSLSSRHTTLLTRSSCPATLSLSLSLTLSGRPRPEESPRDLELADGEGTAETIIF

Vasopressin V2 receptor = Vasopressin V2 receptor (Homo sapiens, UniProt P30518); assay: Late-stage results from the probe development effort to identify antagonists of arginine vasopressin receptor 1a (AVPR1a): fluorescence-based cell-based dose response AVPR2 inhibition counterscreen assay.; assay type: functional
Sequence of Vasopressin V2 receptor (P30518 whole entry): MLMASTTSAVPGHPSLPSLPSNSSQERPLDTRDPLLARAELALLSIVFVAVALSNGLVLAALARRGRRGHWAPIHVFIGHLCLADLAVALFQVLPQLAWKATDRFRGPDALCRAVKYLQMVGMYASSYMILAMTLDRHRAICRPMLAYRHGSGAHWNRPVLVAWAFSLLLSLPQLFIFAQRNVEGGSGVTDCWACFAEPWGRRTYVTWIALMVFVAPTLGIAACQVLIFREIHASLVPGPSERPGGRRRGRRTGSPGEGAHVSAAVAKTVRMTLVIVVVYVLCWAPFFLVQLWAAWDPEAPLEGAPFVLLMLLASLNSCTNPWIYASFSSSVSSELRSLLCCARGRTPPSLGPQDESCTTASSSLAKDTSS

[3] = Late-stage results from the probe development effort to identify antagonists of arginine vasopressin receptor 1a (AVPR1a): fluorescence-based cell-based dose response OXTR inhibition counterscreen assay.; assay type: functional
[4] = molecular target: Sphingosine 1-phosphate receptor 2 (Homo sapiens, UniProt O95136); assay: Dose Response Cell Based Assay for Agonists of the S1P2 Receptor. [Related pubchem assays: 729, 736, 843 ]; assay type: functional
Sequence of Sphingosine 1-phosphate receptor 2 (O95136 whole entry): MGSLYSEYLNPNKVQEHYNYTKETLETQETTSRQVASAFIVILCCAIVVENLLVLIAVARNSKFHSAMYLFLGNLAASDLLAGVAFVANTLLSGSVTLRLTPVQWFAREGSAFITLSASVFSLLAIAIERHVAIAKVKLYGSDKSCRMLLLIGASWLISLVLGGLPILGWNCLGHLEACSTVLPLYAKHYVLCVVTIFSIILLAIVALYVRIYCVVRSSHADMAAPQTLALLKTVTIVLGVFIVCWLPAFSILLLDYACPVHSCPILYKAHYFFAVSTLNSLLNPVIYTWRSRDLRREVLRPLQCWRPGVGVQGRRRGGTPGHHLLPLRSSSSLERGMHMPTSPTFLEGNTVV

[5] = molecular target: T1, Tyrosine-protein phosphatase non-receptor type 7 (Homo sapiens, UniProt P35236); assay: HePTP tyrosine phosphatase activity blockers – biochemical, absorbance, leukemia target, primary screen (AID 521); assay type: functional
T1 sequence (P35236 whole entry): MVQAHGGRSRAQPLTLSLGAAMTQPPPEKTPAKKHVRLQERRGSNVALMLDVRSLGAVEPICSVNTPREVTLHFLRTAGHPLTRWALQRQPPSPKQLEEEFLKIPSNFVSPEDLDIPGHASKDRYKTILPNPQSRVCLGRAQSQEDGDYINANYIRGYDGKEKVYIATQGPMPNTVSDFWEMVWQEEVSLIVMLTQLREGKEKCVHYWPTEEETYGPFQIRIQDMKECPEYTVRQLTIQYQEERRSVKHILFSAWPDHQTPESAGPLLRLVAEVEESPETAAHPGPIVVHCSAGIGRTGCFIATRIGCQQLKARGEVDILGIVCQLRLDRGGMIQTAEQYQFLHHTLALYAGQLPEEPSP

Bcl-2-related protein A1 [6] = molecular target: T2, Bcl-2-related protein A1 (Mus musculus, UniProt Q07440); assay: displacement of Bid BH3 peptide from Bfl-1 – biochemical, fluorescence polarization, FITC-Bid, mouse, primary screen (AID 432)
T2 sequence (Q07440 whole entry): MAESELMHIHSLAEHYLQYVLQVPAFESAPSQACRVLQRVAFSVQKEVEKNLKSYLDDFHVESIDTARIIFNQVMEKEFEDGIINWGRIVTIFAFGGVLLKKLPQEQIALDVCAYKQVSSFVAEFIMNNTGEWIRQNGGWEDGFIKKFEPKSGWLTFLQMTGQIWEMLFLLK

Bcl-2-related protein A1 [7] = molecular target: T2, Bcl-2-related protein A1; assay: small-molecule antagonists of Bfl-1/BH3 interaction – biochemical, TR-FRET, mouse Bfl-1, confirmation (AID 621);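 also: TR-FRET binding of GST-Bfl-1 to FITC-labelled Bid peptide via terbium antibody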
[8] = molecular target: T3, Polyadenylate-binding protein 1 (Homo sapiens, UniProt P11940); assay: MLLE binding blockers, Cy5 peptide tracer – biochemical, fluorescence polarization, Cy5-PAM2 peptide, secondary, miRNA deadenylation inhibitor project, dose response (AID 602260); assay type: functional; settings: read-out: IC50_Mean
T3 sequence (P11940 whole entry, the tested form may be a part): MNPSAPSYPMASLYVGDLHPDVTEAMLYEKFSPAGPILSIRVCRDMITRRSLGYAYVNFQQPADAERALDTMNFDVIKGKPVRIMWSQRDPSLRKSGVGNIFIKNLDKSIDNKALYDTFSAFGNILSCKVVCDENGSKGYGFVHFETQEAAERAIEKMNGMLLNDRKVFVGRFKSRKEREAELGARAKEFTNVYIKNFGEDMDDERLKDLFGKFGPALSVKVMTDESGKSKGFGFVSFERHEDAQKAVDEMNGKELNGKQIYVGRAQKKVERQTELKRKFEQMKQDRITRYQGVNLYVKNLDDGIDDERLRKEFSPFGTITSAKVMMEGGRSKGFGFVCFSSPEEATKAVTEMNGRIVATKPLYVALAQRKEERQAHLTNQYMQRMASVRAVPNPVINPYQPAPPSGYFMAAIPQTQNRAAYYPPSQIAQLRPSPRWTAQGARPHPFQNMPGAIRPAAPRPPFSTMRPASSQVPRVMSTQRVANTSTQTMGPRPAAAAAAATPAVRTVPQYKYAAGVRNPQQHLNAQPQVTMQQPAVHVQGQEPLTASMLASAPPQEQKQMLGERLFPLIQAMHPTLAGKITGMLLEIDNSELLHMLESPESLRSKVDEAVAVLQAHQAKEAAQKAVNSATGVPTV

[9] = molecular target: T3, Polyadenylate-binding protein 1; assay: MLLE domain peptide-binding blockers, IC50 – biochemical, fluorescence polarization, FITC-PAM2 peptide, dose response (AID 602259); assay type: functional; settings: read-out: IC50_Mean
Large T antigen = Large T antigen (Simian virus 40, UniProt P03070); assay type: functional, Betapolyomavirus macacae;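 also: Confirmatory-stage PubChem screen for compounds that inhibit SV40 T antigen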
Sequence of Large T antigen (P03070 whole entry): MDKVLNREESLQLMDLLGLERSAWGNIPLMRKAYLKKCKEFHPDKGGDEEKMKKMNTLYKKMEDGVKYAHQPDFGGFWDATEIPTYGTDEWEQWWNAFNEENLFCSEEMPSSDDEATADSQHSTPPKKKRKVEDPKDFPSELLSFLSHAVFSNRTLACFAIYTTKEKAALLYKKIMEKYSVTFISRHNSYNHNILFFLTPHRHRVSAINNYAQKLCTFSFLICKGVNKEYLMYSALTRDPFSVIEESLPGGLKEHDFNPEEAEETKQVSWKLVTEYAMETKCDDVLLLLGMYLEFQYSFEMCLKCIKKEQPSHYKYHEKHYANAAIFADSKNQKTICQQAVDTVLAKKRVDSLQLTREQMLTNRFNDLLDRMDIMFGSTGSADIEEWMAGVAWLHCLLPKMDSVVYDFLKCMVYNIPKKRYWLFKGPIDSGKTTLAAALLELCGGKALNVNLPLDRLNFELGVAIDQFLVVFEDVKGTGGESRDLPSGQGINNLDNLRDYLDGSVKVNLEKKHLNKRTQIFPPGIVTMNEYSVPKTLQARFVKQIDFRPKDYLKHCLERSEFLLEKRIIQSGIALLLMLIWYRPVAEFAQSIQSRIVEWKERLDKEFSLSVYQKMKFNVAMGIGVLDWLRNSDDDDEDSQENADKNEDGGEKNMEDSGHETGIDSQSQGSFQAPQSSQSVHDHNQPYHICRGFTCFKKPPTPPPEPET

[10] = molecular target: Bifunctional protein GlmU (Mycobacterium tuberculosis, UniProt P9WMN3); assay: Inhibitors of Mycobacterial Glucosamine-1-phosphate acetyl transferase (GlmU). Secondary screen.; parameters: species or system Mycobacterium tuberculosis H37Rv
Sequence of Bifunctional protein GlmU (P9WMN3 whole entry): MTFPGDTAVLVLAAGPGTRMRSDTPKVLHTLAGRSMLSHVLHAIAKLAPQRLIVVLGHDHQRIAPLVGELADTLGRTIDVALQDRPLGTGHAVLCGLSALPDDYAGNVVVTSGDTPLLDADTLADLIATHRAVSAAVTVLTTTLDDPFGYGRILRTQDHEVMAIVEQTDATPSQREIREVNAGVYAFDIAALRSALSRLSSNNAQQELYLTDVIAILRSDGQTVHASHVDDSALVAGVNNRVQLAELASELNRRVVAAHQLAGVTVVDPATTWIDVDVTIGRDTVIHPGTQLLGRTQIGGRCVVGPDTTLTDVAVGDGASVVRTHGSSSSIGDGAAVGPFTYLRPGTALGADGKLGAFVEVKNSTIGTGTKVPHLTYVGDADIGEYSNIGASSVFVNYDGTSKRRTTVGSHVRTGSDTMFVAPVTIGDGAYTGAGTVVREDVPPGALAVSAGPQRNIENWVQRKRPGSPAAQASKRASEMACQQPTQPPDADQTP

[11] = molecular target: 1-phosphatidylinositol 4,5-bisphosphate phosphodiesterase gamma-1 (Homo sapiens, UniProt P19174); assay: Counterscreen for inhibitors of phospholipase C isozymes (PLC-B3): Fluorescence-based biochemical high throughput dose response assay to identify inhibitors of phospholipase C isozymes (PLC-gamma1).
Sequence of 1-phosphatidylinositol 4,5-bisphosphate phosphodiesterase gamma-1 (P19174 whole entry): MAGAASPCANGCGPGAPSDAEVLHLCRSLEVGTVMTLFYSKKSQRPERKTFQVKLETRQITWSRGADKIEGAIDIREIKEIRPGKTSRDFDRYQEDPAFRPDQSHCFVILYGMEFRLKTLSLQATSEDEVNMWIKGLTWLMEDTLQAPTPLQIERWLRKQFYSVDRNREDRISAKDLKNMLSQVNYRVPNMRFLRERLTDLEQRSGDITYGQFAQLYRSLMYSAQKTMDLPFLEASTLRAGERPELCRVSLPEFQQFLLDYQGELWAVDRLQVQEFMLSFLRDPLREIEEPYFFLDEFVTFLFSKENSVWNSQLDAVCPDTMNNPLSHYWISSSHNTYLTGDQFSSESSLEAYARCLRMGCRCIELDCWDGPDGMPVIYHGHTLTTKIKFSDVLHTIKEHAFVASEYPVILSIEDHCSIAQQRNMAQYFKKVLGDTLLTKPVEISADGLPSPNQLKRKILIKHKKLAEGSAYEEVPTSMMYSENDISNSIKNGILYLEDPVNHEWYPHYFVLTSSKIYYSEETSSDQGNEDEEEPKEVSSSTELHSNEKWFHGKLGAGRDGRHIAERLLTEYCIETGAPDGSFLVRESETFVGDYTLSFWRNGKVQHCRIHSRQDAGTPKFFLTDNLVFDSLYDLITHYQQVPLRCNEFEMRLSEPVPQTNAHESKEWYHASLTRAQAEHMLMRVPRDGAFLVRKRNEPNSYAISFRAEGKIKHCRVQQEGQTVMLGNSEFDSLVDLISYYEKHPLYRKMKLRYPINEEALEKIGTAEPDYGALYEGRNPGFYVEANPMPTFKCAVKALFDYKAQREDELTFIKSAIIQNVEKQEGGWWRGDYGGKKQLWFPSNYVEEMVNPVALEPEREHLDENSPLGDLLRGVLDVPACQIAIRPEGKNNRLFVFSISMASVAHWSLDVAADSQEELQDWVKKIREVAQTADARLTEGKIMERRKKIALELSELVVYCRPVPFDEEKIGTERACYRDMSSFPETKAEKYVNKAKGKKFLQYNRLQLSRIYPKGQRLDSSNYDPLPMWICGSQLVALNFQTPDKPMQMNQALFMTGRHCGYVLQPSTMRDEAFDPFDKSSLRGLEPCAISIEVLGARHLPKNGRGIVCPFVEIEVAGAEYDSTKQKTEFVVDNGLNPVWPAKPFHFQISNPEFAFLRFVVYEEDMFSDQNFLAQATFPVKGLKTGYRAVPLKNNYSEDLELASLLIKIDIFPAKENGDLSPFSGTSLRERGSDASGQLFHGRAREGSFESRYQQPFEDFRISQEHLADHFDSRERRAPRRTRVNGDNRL

[12] = molecular target: 1-phosphatidylinositol 4,5-bisphosphate phosphodiesterase beta-3 (Homo sapiens, UniProt Q01970); assay: Fluorescence-based biochemical high throughput dose response assay to identify inhibitors of phospholipase C isozymes (PLC-B3).
[13] = molecular target: T4, Methionyl-tRNA synthetase, putative (Trypanosoma brucei brucei, UniProt Q38C91); assay type: functional, Trypanosoma brucei brucei strain 927/4 GUTat10.1
T4 sequence (Q38C91 whole entry): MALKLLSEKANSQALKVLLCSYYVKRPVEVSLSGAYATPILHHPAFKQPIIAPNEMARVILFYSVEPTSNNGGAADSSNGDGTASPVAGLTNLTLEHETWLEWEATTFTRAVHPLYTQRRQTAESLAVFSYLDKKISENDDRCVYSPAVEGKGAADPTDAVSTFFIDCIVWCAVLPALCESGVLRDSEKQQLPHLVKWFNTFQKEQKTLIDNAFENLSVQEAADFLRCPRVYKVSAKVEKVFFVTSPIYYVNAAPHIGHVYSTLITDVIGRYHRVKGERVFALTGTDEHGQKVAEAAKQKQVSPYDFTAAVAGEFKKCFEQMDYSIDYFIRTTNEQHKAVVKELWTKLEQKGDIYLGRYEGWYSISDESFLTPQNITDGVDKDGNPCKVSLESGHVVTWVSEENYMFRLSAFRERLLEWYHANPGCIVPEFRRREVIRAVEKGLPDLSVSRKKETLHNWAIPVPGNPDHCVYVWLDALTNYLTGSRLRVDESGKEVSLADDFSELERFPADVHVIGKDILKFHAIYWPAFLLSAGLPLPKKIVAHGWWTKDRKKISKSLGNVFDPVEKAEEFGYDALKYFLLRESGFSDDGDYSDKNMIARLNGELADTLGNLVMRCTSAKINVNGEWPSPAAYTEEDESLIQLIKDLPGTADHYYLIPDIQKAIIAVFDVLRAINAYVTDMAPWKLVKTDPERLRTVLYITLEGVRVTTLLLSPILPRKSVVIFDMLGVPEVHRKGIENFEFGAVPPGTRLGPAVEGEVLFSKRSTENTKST

[14] = Counterscreen for inhibitors of Trypanosoma brucei methionyl tRNA synthetase (MetRS): Luminescence-based cell-based high throughput dose response assay to identify compounds that are cytotoxic to Jurkat human T lymphocyte cells.; assay type: functional
[15] = molecular target: T4, Methionyl-tRNA synthetase, putative; assay type: functional, Trypanosoma brucei brucei strain 927/4 GUTat10.1; remark: listed apart in the source
[16] = Late stage counterscreen for inhibitors of Trypanosoma brucei methionyl tRNA synthetase (MetRS): Luminescence-based cell-based high throughput dose response assay to identify compounds that are cytotoxic to Jurkat human T lymphocyte cells.; assay type: functional

## COc1ccc(-n2cc(CNCCc3nc(C)cc(C)n3)c(-c3ccccc3Cl)n2)cc1
HEK293
  AC50: 11.4 µM (active)
[1]
  AC50: 11.4 µM (active)

## COc1cccc(N(CC2CC2)C(=O)N2CCN(c3ccccc3C)CC2)c1
[2]
  IC50: 0.057 µM (active)
Vasopressin V1b receptor
  IC50: 12.4 µM (inactive)
Vasopressin V2 receptor
  IC50: 20.6 µM (inactive)
[3]
  IC50: 20.6 µM (inactive)

## COc1cc2c(cc1OC)C1=C(C#N)CCC(=O)N1CC2
[4]
  EC50: 1.33 µM (active)

## Cc1ccc(-n2nnc3c(=O)n(CC(=O)NCc4ccco4)cnc32)cc1
[5]
  IC50: > 100 µM (not active)

## NC(=O)N1c2ccccc2CC(=O)c2ccccc21 [OXCARBAZEPINE]
Bcl-2-related protein A1 [6]
  IC50: > 100 µM (not active)
Bcl-2-related protein A1 [7]
  IC50: > 100 µM (not active)
[8]
  IC50: > 66 µM (inactive)
[9]
  IC50: 28.1 µM (inactive)

## COc1ccc(/C=C2/C(=O)NC(=O)N(Cc3ccco3)C2=O)cc1
Large T antigen
  IC50: 23.5 µM (active)
[10]
  IC50: 1.79 µM (active)

## NC(=O)CC(NC(=O)Cc1cccc2ccccc12)c1ccc(N2CCCCCC2)c([N+](=O)[O-])c1 (stereo not given)
[11]
  IC50: > 122 µM (inactive)
[12]
  IC50: > 122 µM (inactive)

## Clc1ccc(-c2nnc(SCc3nc4ccccc4[nH]3)o2)c(Cl)c1
[13]
  IC50: 0.802 µM (active)
[14]
  IC50: 83.3 µM (inactive)
[15]
  IC50: 0.401 µM (active)
[16]
  IC50: > 83.3 µM (inactive)

— ChEMBL document CHEMBL1201862, “PubChem BioAssay data set” (2004)
